# Assays:
# [1] = in vivo; cited from earlier work
# [2] = in vivo; cited from earlier work; remark: listed apart in the source
# rat = conditions: cited from earlier work
# Tg2576 mice = conditions: cited from earlier work
# [3] = in vivo; cited from earlier work; remark: listed apart in the source
# rats [4] = conditions: cited from earlier work
# [5] = in vivo; cited from earlier work; remark: listed apart in the source
# high-anxiety rats = conditions: particularly in high-anxiety rats; cited from earlier work
# [6] = in vivo; cited from earlier work; remark: listed apart in the source
# [7] = in vivo; cited from earlier work; remark: listed apart in the source
# [8] = in vivo; cited from earlier work; remark: listed apart in the source
# [9] = pretreatment; cited from earlier work
# rats [10] = conditions: cited from earlier work; remark: listed apart in the source
# rats [11] = conditions: cited from earlier work; remark: listed apart in the source
# rats [12] = conditions: cited from earlier work; remark: listed apart in the source
# [13] = in vivo; cited from earlier work; remark: listed apart in the source
# [14] = in vivo; cited from earlier work; remark: listed apart in the source
# ethanol withdrawal rats = conditions: cited from earlier work
# IBS patients = conditions: cited from earlier work
# Balb/c mice = assay: Light/dark box test in mice (anxiolytic effect); assay type: in vivo
# Protocol: The light/dark box test in mice was carried out according to a modified method of Belzung C., Misslin R., Vogel E. et al. (Reference; Behavioural effects of the benzodiazepine receptor partial agonist RO16-6028 in mice, Psychopharmacology, 97, 388-391, 1989). The test apparatus used was a light/dark box comprising a covered black acrylic box (dark box; 15×10×20 cm), an uncovered white acrylic box (light box; 15×20×20 cm) and a black acrylic tunnel (10×7×4.5 cm) which connects dark box and light box and enables a mouse to freely move back and forth between the dark box and light box. In this test apparatus, however, a transparent acrylic polymer was used for the front side (20×20 cm) and back side (20×20 cm) of the light box to allow observation of the behavior. After setting illumination so that the light intensity of the floor of the light box was 150 Lux, 5-week-old male Balb/c mice (purchased from Nihon Charles River) were introduced into the dark box at the beginning of the test. For the test, the tested compound was suspended in 5% dimethylsulfoxide, 5% Cremopor EL and 90% physiological saline and orally administered to the test animals one hour prior to the start of the test.
# The time spent in the light box was measured as an index of the anxiolytic effect, with “spend in the light box” defined as the state in which all limbs of the mice were on the floor of the light box. […] The statistical significance between the vehicle-treated group and the test compound-treated groups was analyzed by one way analysis of variance followed by Dunnett multiple comparison when multiple doses were set for the same test, and by the Mann-Whitney U test when only one dose was set.
# human CRFR1 = biological target: T1, human CRFR1 (Homo sapiens, UniProt P34998); assay: CRFR1 binding test (SPA competition with 125I-CRF, membrane fraction of CRFR1-expressing HEK293 cells); conditions: 100 pM 125I-CRF, room temperature, read-out: CRF1 receptor binding capacity IC50
# T1 construct: The full-length CRFR1 gene was obtained by PCR using human brain cDNA library; expressed in transfected cells; pcDNA3.1 expression vector; membrane fraction used
# T1 sequence (P34998 24-415): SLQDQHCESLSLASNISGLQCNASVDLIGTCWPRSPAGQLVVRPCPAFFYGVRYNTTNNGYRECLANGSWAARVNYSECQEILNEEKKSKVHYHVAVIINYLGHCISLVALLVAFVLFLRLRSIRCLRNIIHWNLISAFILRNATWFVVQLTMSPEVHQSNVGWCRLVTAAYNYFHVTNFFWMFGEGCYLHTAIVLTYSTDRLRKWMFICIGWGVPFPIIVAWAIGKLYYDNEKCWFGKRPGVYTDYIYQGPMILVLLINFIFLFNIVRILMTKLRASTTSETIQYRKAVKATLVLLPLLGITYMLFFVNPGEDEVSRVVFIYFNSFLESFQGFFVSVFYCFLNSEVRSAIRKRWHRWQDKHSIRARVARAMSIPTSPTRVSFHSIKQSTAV
# Protocol: The binding capacities of the compounds of the invention for CRF1 receptor (CRFR1) were evaluated.
# The membrane fraction of human CRFR1 high-expressing cells was used as the material for a CRFR1 binding experiment. The CRFR1-expressing cells were prepared in the following manner. The full-length CRFR1 gene was obtained by PCR using human brain cDNA library (QuickClone™ Clontech). The obtained DNA fragment was inserted into a cloning vector and the nucleotide sequence was confirmed. cDNA having the proper nucleotide sequence was linked to an expression vector (pcDNA3.1™, Invitrogen). The CRFR1 expression vector was introduced into HEK293 cell, and the resistant cells which proliferated in culture medium containing G418 (1 mg/ml) were cloned by the limiting dilution method. Out of the cloned cells, cells having high binding affinity between the membrane fraction per unit of protein and sauvagine were selected according to the following binding experiment. And the selected cells were used for the experiments.
# The cloned cells obtained in (1) were collected and suspended in ice-cooled membrane buffer (50 mM Tris-HCl, 5 mM MgCl2, 2 mM EGTA, 1 mM DTT, protease inhibitor cocktail (COMPLETE™, Roche Diagnostics) pH 7.3), and then the cells were disrupted with a Polytron ([…]) while cooling on ice (level 5, 10 seconds, 2-5 times, ice-cooling) and then centrifuged (2,000 rpm, 5 minutes, 4° C.), after which the supernatant was collected. Membrane buffer was added to the precipitate, and the mixture was subjected to Polytron treatment (same conditions as above) and centrifuged (same conditions as above), and the obtained supernatant was collected and combined with the previous supernatant. This was centrifuged (13,000 rpm (18,000×g), 30 minutes, 4° C.) to prepare cell membranes. The precipitated cell membranes were suspended in membrane buffer and disrupted with a Polytron (level 5, 10 seconds, 3-5 times, ice-cooling) to prepare a dispersed suspension. The protein assay was performed.
# The following method (1) or (2) was performed for use as the cell membrane fraction.
# (1) The above dispersed suspension was diluted with membrane buffer containing 0.1% BSA to a protein concentration of 200 μg/ml, for use as the cell membrane fraction
# (2) The above dispersed suspension was frozen for preservation, and if needed, thawed, re-dispersed and diluted for used as the cell membrane fraction.
# A binding competition experiment with CRF was conducted by the SPA (GE Healthcare) method using a 96-well plate. A mixture of 5 μg of the cell membrane fraction protein, 1 mg of SPA beads and 100 pM ^125I-CRF (Perkin Elmer) was allowed to stand at room temperature for at least 2 hours in the presence of a test compound, and the radioactivity of each well after centrifugation (1,200 rpm (260×g), 5 minutes, room temperature) was measured with a TopCount (registered trademark; Perkin Elmer).
# The radioactivity with addition of a 4,000-fold excess of non-radioactive sauvagine as the nonspecific binding was subtracted from each value, and the resulting value was expressed as a percentage (% of control), with 100% as the radioactivity without addition of the test compound (control). The IC50 value was calculated from a binding inhibition curve drawn with test compound concentration on the horizontal axis and % (% of control) on the vertical axis.
compound,measurement,setting,value
CCCCN(CC)c1nc(C)nc2c1c(C)c(C)n2-c1c(C)cc(C)cc1C [antalarmin],stress-induced hippocampal tau phosphorylation,[1],inhibits
same,hypertension induced by intraventricular administration of CRF,[2],inhibits
CCCN(CC1CC1)c1nc(C)nc(Nc2c(Cl)cc(Cl)cc2Cl)c1Cl [NBI-27914],water avoidance stress-related rat catharsis,rat,inhibits
same,increased levels of Aβ and Aβ plaque deposition induced by stress,Tg2576 mice,inhibits
same,limbic system seizure (convulsion and epilepsy induced by CRF administration),[3],inhibits
CCCN(CCC)c1cc(C)nc2c(-c3cnc(N(C)C)cc3C)c(C)nn12 [Example R121919],anti-anxiety action,rats [4],exhibits an anti-anxiety action
same,"ameliorating depression, depressive symptoms, anxiety",[5],effective
same,stress-related sleep disorder,high-anxiety rats,inhibits
CCN(c1nc(C)cc(N2CC=C(c3cccc(F)c3)CC2)n1)c1ccc(C(C)C)cc1SC [CRA1000],stress-related reduction in food intake,[6],inhibit
CCCCN(CC)c1nc(C)nc2c1c(C)cn2-c1c(C)cc(C)cc1C [CP-154526],gastric emptying retardation following surgery,[7],ameliorates
same,learning disturbance following acute stress,[8],inhibits
same,naltrexone-induced morphine withdrawal symptoms,[9],inhibits
same,anti-depressant and anti-anxiety actions,rats [10],exhibits anti-depressant and anti-anxiety actions
same,recurrence of stress-elicited alcohol-seeking behavior,rats [11],inhibits
same,"recurrence of stress-elicited drug (heroin, cocaine)-seeking behavior",rats [12],inhibits
α-helical CRF(9-41),ischemic and excitotoxic encephalopathy,[13],inhibits
same,stress-related reduction in food intake,[6],inhibit
same,stress-related increase in intracerebral amyloid-β,[14],suppresses
same,anxiety behavior,ethanol withdrawal rats,inhibits
same,abdominal pain and anxiety,IBS patients,reduces
same,colon intestinal hyperkinesis,IBS patients,inhibits
"CCOCc1cc(OC)c(-c2csc3c(N(CC4CC4)C4CCCOC4)c(OC)nn23)c(OC)c1 (stereo not drawn) [Example 5, N-(Cyclopropylmethyl)-3-[4-(ethoxymethyl)-2,6-dimethoxyphenyl]-6-methoxy-N-(tetrahydro-2H-pyran-3-yl)pyrazolo[5,1-b][1,3]thiazole-7-amine]",anxiolytic effect in the light/dark box test,"Balb/c mice; 30 mg/kg, oral administration",statistically significant effects
same,minimal effective dose,"Balb/c mice; Mus musculus, 1 h, minimum dose significantly prolonging time spent in the light box vs vehicle, oral, one hour prior to test",30 mg/kg
same,IC50,human CRFR1,29 nM

# Reference: US8431603B2, “3-phenylpyrazolo[5,1-b]thiazole compounds” (Eisai R&D Management Co., Ltd., priority 2008, dated 2013)
